Source: ChEMBL document CHEMBL1817637, “Viridaphin A₁ glucoside, a green pigment possessing cytotoxic and antibacterial activity from the aphid Megoura crassicauda” (J Nat Prod, 2011)
≈ marks a conversion by molar mass, not a printed value.

Legend:
HL-60 = assay: Cytotoxicity against human HL60 cells; format: functional, cell-based
Bacillus subtilis = assay: Antimicrobial activity against Bacillus subtilis NBRC 3134; format: functional

SMILES	IC50 (HL-60) [µM]	MIC (Bacillus subtilis) [µg/mL]
CCCCCC[C@H]1C(=O)O[C@H](C)[C@H](NC(=O)c2cccc(NC=O)c2O)C(=O)O[C@@H](C)[C@@H]1OC(=O)CC(C)C [ANTIMYCIN A]	45	
C[C@@H]1Cc2c(c(O)c3c(=O)cc4oc5c(O)cc(O[C@@H]6O[C@H](CO)[C@@H](O)[C@H](O)[C@H]6O)c6c(=O)c7c8c(c56)c4c3c2O[C@@]8(O)[C@@H](C)O[C@@H]7C)[C@@H](C)O1 [VIRIDAPHIN A1 GLUCOSIDE]	23	10 (≈ 14.2 µM)
